The record followed here is US10730874B2 (Shire Human Genetic Therapies, Inc., priority 2018, dated 2020).

pEC50: −log10 of the molar value. Bounds are passed on as bounds.

Chain of human activated kallikrein enzyme (plasma kallikrein) (P03952 391-638): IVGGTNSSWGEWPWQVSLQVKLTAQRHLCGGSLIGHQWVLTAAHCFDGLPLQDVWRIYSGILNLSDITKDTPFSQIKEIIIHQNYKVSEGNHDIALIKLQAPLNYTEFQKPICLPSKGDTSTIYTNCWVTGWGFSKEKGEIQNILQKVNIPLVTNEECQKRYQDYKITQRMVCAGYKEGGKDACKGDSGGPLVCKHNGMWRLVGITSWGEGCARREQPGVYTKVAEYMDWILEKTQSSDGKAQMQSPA
Chain of human activated kallikrein enzyme (plasma kallikrein) (P03952 20-390 partner): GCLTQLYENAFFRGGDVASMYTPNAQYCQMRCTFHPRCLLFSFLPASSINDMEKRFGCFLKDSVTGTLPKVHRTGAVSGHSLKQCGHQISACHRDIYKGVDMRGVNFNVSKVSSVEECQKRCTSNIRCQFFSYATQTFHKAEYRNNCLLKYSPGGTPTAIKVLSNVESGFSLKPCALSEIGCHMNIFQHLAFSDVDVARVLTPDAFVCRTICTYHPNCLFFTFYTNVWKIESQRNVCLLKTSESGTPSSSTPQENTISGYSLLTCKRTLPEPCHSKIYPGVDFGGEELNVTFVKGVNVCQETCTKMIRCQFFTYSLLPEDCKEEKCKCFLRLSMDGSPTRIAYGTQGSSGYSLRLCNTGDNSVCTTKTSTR

For the first assay, the target named is human activated kallikrein enzyme (plasma kallikrein) (Homo sapiens (Human), UniProt P03952). In words: Inhibition of human activated plasma kallikrein, fluorogenic peptide substrate assay, 500 pM enzyme format. It counts as biochemical. The note with it: 500 pM activated kallikrein enzyme, 300 uM Pro-Phe-Arg-7-amido-4-methylcoumarin substrate, 30 min preincubation, 10 min at RT; read-out: Primary Dose Response Assay: Average EC50. The protocol:
Example compounds were evaluated for inhibition of the human activated kallikrein enzyme in two formats of an assay employing a fluorogenic peptide substrate. In one assay format, the concentrations of reagents were as follows: 20 mM Tris pH 7.5, 1 mM EDTA, 150 mM sodium chloride, 0.1% PEG-400, 0.1% Triton X-100, 500 pM activated kallikrein enzyme, 300 uM Pro-Phe-Arg-7-amido-4-methylcoumarin substrate. Prior to reaction initiation with substrate, enzyme and inhibitors were preincubated for 30 min at RT. After initiation with substrate, reactions were incubated for 10 min at RT and fluorescence emission at 460 nm from 380 nm excitation measured with a microplate reader. In another assay format, the concentrations of reagents were as follows: 20 mM Tris pH 7.5, 1 mM EDTA, 150 mM sodium chloride, 0.1% PEG-400, 0.1% Triton X-100, 5 pM activated kallikrein enzyme, 300 uM Pro-Phe-Arg-7-amido-4-methylcoumarin substrate. Prior to reaction initiation with substrate, enzyme and inhibitors were preincubated for 30 min at RT. After initiation with substrate, reactions were incubated for 18 h at RT and fluorescence emission at 460 nm from 380 nm excitation measured with a microplate reader.
For the molecule `O=C(NCc1ncn2ccc(Cl)cc12)c1ccnc(Cc2ccc3ncc(Cl)cc3c2)c1` [Example I-3, N-((7-chloroimidazo[1,5-a]pyridin-1-yl)methyl)-2-((3-chloroquinolin-6-yl)methyl)isonicotinamide], the pEC50 (as a rule, the negative decadic logarithm of the EC50, by convention in mol/L) was 7.00 to 8.00.
Take `O=C(NCc1ncn2ccc(C3CC3)cc12)c1cnn(Cc2cn3cc(C4CC4)ccc3n2)c1` [Example I-48, 1-((6-cyclopropylimidazo[1,2-a]pyridin-2-yl)methyl)-N-((7-cyclopropylimidazo[1,5-a]pyridin-1-yl)methyl)-1H-pyrazole-4-carboxamide]: the negative-log EC50 (pEC50) was 5.70 to 7.00.
On the same count and under the same terms, to `NCc1cc(C2CC2)cn2cc(Cn3cc(C(=O)NCc4ncn5ccc(Cl)c(F)c45)nn3)nc12` [Example I-298, 1-((8-(aminomethyl)-6-cyclopropylimidazo[1,2-a]pyridin-2-yl)methyl)-N-((7-chloro-8-fluoroimidazo[1,5-a]pyridin-1-yl)methyl)-1H-1,2,3-triazole-4-carboxamide] belongs over 9.00; to `[2H]C([2H])(NC(=O)c1cnn(Cc2cn3cc(C4CC4)ccc3n2)c1)c1ncn2ccc(Cl)cc12` [Example I-90, N-((7-chloroimidazo[1,5-a]pyridin-1-yl)methyl-d2)-1-((6-cyclopropylimidazo[1,2-a]pyridin-2-yl)methyl)-1H-pyrazole-4-carboxamide], over 9.00; to `O=C(NCc1ncn2ccc(Cl)c(F)c12)c1cn(Cc2nc3ccccn3n2)nn1` [Example I-287, 1-([1,2,4]triazolo[1,5-a]pyridin-2-ylmethyl)-N-((7-chloro-8-fluoroimidazo[1,5-a]pyridin-1-yl)methyl)-1H-1,2,3-triazole-4-carboxamide], 5.70 to 7.00.
Consider `O=C(NCc1ncn2ccc(Cl)c(F)c12)c1cn(Cc2cn3cc(C4CC4)cc(F)c3n2)nn1` [Example I-171, N-((7-chloro-8-fluoroimidazo[1,5-a]pyridin-1-yl)methyl)-1-((6-cyclopropyl-8-fluoroimidazo[1,2-a]pyridin-2-yl)methyl)-1H-1,2,3-triazole-4-carboxamide], for which the pEC50 is over 9.00.
Consider `O=C(NCc1ncn2ccc(Cl)c(F)c12)c1cn(Cc2cn3cc(C4CC4)cc(C4CCOC4=O)c3n2)nn1` (stereo not drawn) [Example I-199, N-((7-chloro-8-fluoroimidazo[1,5-a]pyridin-1-yl)methyl)-1-((6-cyclopropyl-8-(2-oxotetrahydrofuran-3-yl)imidazo[1,2-a]pyridin-2-yl)methyl)-1H-1,2,3-triazole-4-carboxamide], for which the pEC50 was over 9.00.
The same measure, in the same setting: the value for `O=C(NCc1ncn2ccc(Cl)cc12)c1cnn(Cc2cn3cc(C4CC4)cc(C4COC4)c3n2)c1` [Example I-132, N-((7-chloroimidazo[1,5-a]pyridin-1-yl)methyl)-1-((6-cyclopropyl-8-(oxetan-3-yl)imidazo[1,2-a]pyridin-2-yl)methyl)-1H-pyrazole-4-carboxamide] was over 9.00; that for `O=C(NCc1ncn2ccc(Cl)c(F)c12)c1cn(Cc2cc3cc(C4CC4)ccc3o2)nn1` [Example I-191, N-((7-chloro-8-fluoroimidazo[1,5-a]pyridin-1-yl)methyl)-1-((5-cyclopropylbenzofuran-2-yl)methyl)-1H-1,2,3-triazole-4-carboxamide] was 8.00 to 9.00; that for `CCOC(=O)C(C)(C)Cc1cc(C2CC2)cn2cc(Cn3cc(C(=O)NCc4ncn5ccc(Cl)cc45)cn3)nc12` [Example I-162, ethyl 3-(2-((4-(((7-chloroimidazo[1,5-a]pyridin-1-yl)methyl)carbamoyl)-1H-pyrazol-1-yl)methyl)-6-cyclopropylimidazo[1,2-a]pyridin-8-yl)-2,2-dimethylpropanoate] was over 9.00.
On to `O=C(NCc1ncn2ccc(Cl)c(F)c12)c1cn(Cc2nc3cc(C4CC4)ccn3n2)nn1` [Example I-178, N-((7-chloro-8-fluoroimidazo[1,5-a]pyridin-1-yl)methyl)-1-((7-cyclopropyl-[1,2,4]triazolo[1,5-a]pyridin-2-yl)methyl)-1H-1,2,3-triazole-4-carboxamide], for which the pEC50 was 7.00 to 8.00.
For the molecule `Cc1c(C2CC2)ccc2nc(Cn3cc(C(=O)NCc4ncn5ccc(Cl)cc45)cn3)cn12` [Example I-13, N-((7-chloroimidazo[1,5-a]pyridin-1-yl)methyl)-1-((6-cyclopropyl-5-methylimidazo[1,2-a]pyridin-2-yl)methyl)-1H-pyrazole-4-carboxamide], the pEC50 is over 9.00.
Take `C=Cc1ccn2cnc(CNC(=O)c3cnn(Cc4cn5cc(C6CC6)ccc5n4)c3)c2c1` [Example I-118, 1-((6-cyclopropylimidazo[1,2-a]pyridin-2-yl)methyl)-N-((7-vinylimidazo[1,5-a]pyridin-1-yl)methyl)-1H-pyrazole-4-carboxamide]: the pEC50 is 8.00 to 9.00.
On to `O=C(NCc1ncn2ccc(Cl)cc12)c1cnn(Cc2cn3cc(C4CC4)cc(CO)c3n2)c1` [Example I-75, N-((7-chloroimidazo[1,5-a]pyridin-1-yl)methyl)-1-((6-cyclopropyl-8-(hydroxymethyl)imidazo[1,2-a]pyridin-2-yl)methyl)-1H-pyrazole-4-carboxamide], for which the pEC50 is over 9.00.
Regarding `Nc1c(C2CC2)ccc2nc(Cn3cc(C(=O)NCc4ncn5ccc(Cl)cc45)cn3)cn12` [Example I-88, 1-((5-amino-6-cyclopropylimidazo[1,2-a]pyridin-2-yl)methyl)-N-((7-chloroimidazo[1,5-a]pyridin-1-yl)methyl)-1H-pyrazole-4-carboxamide], the pEC50 is 8.00 to 9.00.
In the case of `CCOC(=O)c1nc(C(=O)NCc2ncn3ccc(Cl)c(F)c23)cn1Cc1cn2cc(C3CC3)ccc2n1` [Example I-260], the pEC50 was over 9.00.
With `O=C(NCc1ncn2ccc(Cl)cc12)c1cnc(Cc2cn3cc(C4CC4)ccc3n2)s1` [Example I-38, N-((7-chloroimidazo[1,5-a]pyridin-1-yl)methyl)-2-((6-cyclopropylimidazo[1,2-a]pyridin-2-yl)methyl)thiazole-5-carboxamide], the pEC50 was 8.00 to 9.00.
Take `O=C(NCc1ncn2ccc(Cl)cc12)c1cnn(Cc2cn3c(F)c(C4CC4)ccc3n2)c1` [Example I-59, N-((7-chloroimidazo[1,5-a]pyridin-1-yl)methyl)-1-((6-cyclopropyl-5-fluoroimidazo[1,2-a]pyridin-2-yl)methyl)-1H-pyrazole-4-carboxamide]: the pEC50 is over 9.00.
On the same count and under the same terms, to `CC(=O)c1cc(C2CC2)cn2cc(Cn3cc(C(=O)NCc4ncn5ccc(Cl)cc45)cn3)nc12` [Example I-104a, 1-((8-acetyl-6-cyclopropylimidazo[1,2-a]pyridin-2-yl)methyl)-N-((7-chloroimidazo[1,5-a]pyridin-1-yl)methyl)-1H-pyrazole-4-carboxamide] belongs over 9.00; to `Cc1ccc2nc(Cn3cc(C(=O)NCc4ncn5ccc(Cl)c(Cl)c45)cn3)cn2c1` [Example I-33, N-((7,8-dichloroimidazo[1,5-a]pyridin-1-yl)methyl)-1-((6-methylimidazo[1,2-a]pyridin-2-yl)methyl)-1H-pyrazole-4-carboxamide], 7.00 to 8.00; to `O=C(NCc1ncn2ccc(Cl)cc12)c1cnn(Cc2cn3cc(C4CCC4)ccc3n2)c1` [Example I-61, N-((7-chloroimidazo[1,5-a]pyridin-1-yl)methyl)-1-((6-cyclobutylimidazo[1,2-a]pyridin-2-yl)methyl)-1H-pyrazole-4-carboxamide], 8.00 to 9.00.
For `CC(NC(=O)c1cnn(Cc2cn3cc(C4CC4)ccc3n2)c1)c1ncn2ccc(Br)cc12` (stereo not drawn) [Example I-74, N-(1-(7-bromoimidazo[1,5-a]pyridin-1-yl)ethyl)-1-((6-cyclopropylimidazo[1,2-a]pyridin-2-yl)methyl)-1H-pyrazole-4-carboxamide], the pEC50 was 8.00 to 9.00.
In the case of `O=C(NCc1ncn2ccc(Cl)c(F)c12)c1cn(Cc2cc3ccc(Cl)cc3s2)nn1` [Example I-234, N-((7-chloro-8-fluoroimidazo[1,5-a]pyridin-1-yl)methyl)-1-((6-chlorobenzo[b]thiophen-2-yl)methyl)-1H-1,2,3-triazole-4-carboxamide], the pEC50 is 7.00 to 8.00.
Turning to `COC(=O)CCc1nn(Cc2cn3cc(C4CC4)ccc3n2)cc1C(=O)NCc1ncn2ccc(Cl)cc12` [Example I-65, methyl 3-(4-(((7-chloroimidazo[1,5-a]pyridin-1-yl)methyl)carbamoyl)-1-((6-cyclopropylimidazo[1,2-a]pyridin-2-yl)methyl)-1H-pyrazol-3-yl)propanoate], the pEC50 is over 9.00.
Regarding `O=C(NCc1ncn2ccc(Br)c(F)c12)c1nnc(Cc2cn3cc(C4CC4)ccc3n2)o1` [Example I-136, N-((7-bromo-8-fluoroimidazo[1,5-a]pyridin-1-yl)methyl)-5-((6-cyclopropylimidazo[1,2-a]pyridin-2-yl)methyl)-1,3,4-oxadiazole-2-carboxamide], the pEC50 is over 9.00.
For `O=C(O)CCc1cc(C2CC2)cn2cc(Cn3cc(C(=O)NCc4ncn5ccc(Cl)c(F)c45)nn3)nc12` [Example I-163b, 3-(2-((4-(((7-chloro-8-fluoroimidazo[1,5-a]pyridin-1-yl)methyl)carbamoyl)-1H-1,2,3-triazol-1-yl)methyl)-6-cyclopropylimidazo[1,2-a]pyridin-8-yl)propanoic acid], the pEC50 is over 9.00.

Still in this assay, the particulars now being: comparative compounds (Table II); assay format with 500 pM (500 μM in the source) activated kallikrein; read-out: Primary Dose Response Assay: Average EC50.
In the case of `O=C(NCc1ncn2ccc(Cl)cc12)c1ccnc(Cc2ccc3ncc(Cl)cc3c2)c1` [drawing 399, reference compound], the pEC50 was 7.00 to 8.00.
